Source: patent US20250325517A1, “ORAL DOSAGE FORMS OF ELRAGLUSIB” (Actuate Therapeutics, Inc., priority 2022, published 2025)
Values joined by “and” are separate entries in the source; they are usually repeats but may differ in a detail not shown here. Equal values may be shown once. Read-outs that look alike come from different tables or passages of the source. Marks after values point to notes of the source that are not given here.

Test: Phase 1 crossover PK study: oral solution fed/fasted vs IV infusion in healthy subjects
Type: in vivo, human
Method: This pharmacokinetic (PK) study in healthy subjects was conducted to characterize and compare the PK parameters in plasma following a single intravenous (IV) dose of Elraglusib Injection, Elraglusib Oral Solution after fasting, and Elraglusib Oral Solution after a high-fat meal (fed). The study was intended to assess the potential feasibility of an oral formulation of elraglusib based on systemic exposure being within the biologically active range. In clinical studies conducted to date, elraglusib Injection (10 mg/mL) is administered IV once or twice per week over multiple hours, which requires a significant amount of time and resources by both patients and site personnel. […] See Example 3 above.
The route of administration is by IV infusion after diluting elraglusib for injection with 0.9% Sodium Chloride Injection.
It is a clear, red solution, free of visible particulate matter and a low bioburden liquid dosage form that is self-preserving against microbial growth.
Subjects received a single 3.3 mg/kg dose of each of the following in a randomly assigned order separated by a 2-week period.
During the study, the high fat meal was administered over a period of under 30 minutes (in almost all cases, 28 minutes).
Elraglusib Injection (10 mg/mL) administered as an IV infusion over 60 minutes (concentration in mg/mL and infusion rate in mL/kg/hour could vary depending on the subject's body weight).
PK parameters including AUC, Cmax, Tmax, and t1/2 were analyzed by standard non-compartmental analysis (NCA) methods following each of the elraglusib doses. Log transformed Cmax and AUC parameters in subjects having adequate PK data following at least 1 of the oral and IV doses were used to assess the relative bioavailability of the oral dose (fed and/or fasted) compared to the IV dose.
All efforts were made to obtain the PK samples at the scheduled nominal times relative to dosing. PK samples were assayed using validated analytical methods.

[1] = IV infusion 3.3 mg/kg, human plasma

Cn1cc(C2=C(c3coc4ccc(F)cc34)C(=O)NC2=O)c2cc3c(cc21)OCO3 [elraglusib, 3-(5-fluorobenzofuran-3-yl)-4-(5-methyl-5H-[1,3]dioxolo[4,5-f]indol-7-yl)-1H-pyrrole-2,5-dione]
% extrap Arithmetic Mean [1]: 1.146% | % extrap GMean [1]: 0.7979% | % extrap Median [1]: 1.04% | AUC∞/Dose Arithmetic Mean [1]: 33.79 ng·h/mL/mg | AUC∞/Dose GMean [1]: 32.93 ng·h/mL/mg | AUC∞/Dose Median [1]: 32.7 ng·h/mL/mg | Clast Arithmetic Mean [1]: 3.045 ng/mL | Clast GMean [1]: 2.142 ng/mL | Clast Median [1]: 2.64 ng/mL | Cmax/Dose Arithmetic Mean [1]: 6.756 ng/mL/mg | Cmax/Dose GMean [1]: 6.615 ng/mL/mg | Cmax/Dose Median [1]: 7.02 ng/mL/mg | R^2 Arithmetic Mean [1]: 0.9904 # | R^2 GMean [1]: 0.9903 # | R^2 Median [1]: 0.9964 # | λZ Arithmetic Mean [1]: 0.0397 h⁻¹ | λZ GMean [1]: 0.0372 h⁻¹ | λZ Median [1]: 0.0346 h⁻¹ | oral bioavailability vs IV, geometric means of AUClast or AUC∞ (human, fasted state): 14-21% | oral bioavailability vs IV, geometric means of Cmax (human, fasted state): 5-11% | half-life (human, plasma, 3.3 mg/kg, human, read-out: terminal elimination half-life, rapid clearance subset of subjects): 7 to 11 h | clearance (human, plasma, iv, 3.3 mg/kg, IV infusion): 7.11 mL/min/kg and 519 mL/min | AUC (human, plasma, iv, 3.3 mg/kg, IV infusion 3.3 mg/kg, human plasma, read-out: AUC24 Arithmetic Mean): 6850 ng·h/mL | AUC (human, plasma, iv, 3.3 mg/kg, IV infusion 3.3 mg/kg, human plasma, read-out: AUC24 GMean): 6730 ng·h/mL | AUC (human, plasma, iv, 3.3 mg/kg, IV infusion 3.3 mg/kg, human plasma, read-out: AUC24 Median): 7200 ng·h/mL | AUC (human, plasma, iv, 3.3 mg/kg, IV infusion 3.3 mg/kg, human plasma, read-out: AUC48 Arithmetic Mean): 7590 ng·h/mL | AUC (human, plasma, iv, 3.3 mg/kg, IV infusion 3.3 mg/kg, human plasma, read-out: AUC48 GMean): 7450 ng·h/mL | AUC (human, plasma, iv, 3.3 mg/kg, IV infusion 3.3 mg/kg, human plasma, read-out: AUC48 Median): 7980 ng·h/mL | AUC (human, plasma, iv, 3.3 mg/kg, IV infusion 3.3 mg/kg, human plasma, read-out: AUC72 Arithmetic Mean): 7840 ng·h/mL | AUC (human, plasma, iv, 3.3 mg/kg, IV infusion 3.3 mg/kg, human plasma, read-out: AUC72 GMean): 7690 ng·h/mL | AUC (human, plasma, iv, 3.3 mg/kg, IV infusion 3.3 mg/kg, human plasma, read-out: AUC72 Median): 8190 ng·h/mL | AUC (human, plasma, iv, 3.3 mg/kg, IV infusion 3.3 mg/kg, human plasma, read-out: AUC96 Arithmetic Mean): 7980 ng·h/mL | AUC (human, plasma, iv, 3.3 mg/kg, IV infusion 3.3 mg/kg, human plasma, read-out: AUC96 GMean): 7810 ng·h/mL | AUC (human, plasma, iv, 3.3 mg/kg, IV infusion 3.3 mg/kg, human plasma, read-out: AUC96 Median): 8250 ng·h/mL | AUC(0-t) (human, plasma, iv, 3.3 mg/kg, IV infusion 3.3 mg/kg, human plasma, read-out: AUClast Arithmetic Mean): 7970 ng·h/mL | AUC(0-t) (human, plasma, iv, 3.3 mg/kg, IV infusion 3.3 mg/kg, human plasma, read-out: AUClast GMean): 7810 ng·h/mL | AUC(0-t) (human, plasma, iv, 3.3 mg/kg, IV infusion 3.3 mg/kg, human plasma, read-out: AUClast Median): 8250 ng·h/mL | AUC(0-inf) (human, plasma, iv, 3.3 mg/kg, IV infusion 3.3 mg/kg, human plasma, read-out: AUC∞ Arithmetic Mean): 8070 ng·h/mL | AUC(0-inf) (human, plasma, iv, 3.3 mg/kg, IV infusion 3.3 mg/kg, human plasma, read-out: AUC∞ GMean): 7900 ng·h/mL | AUC(0-inf) (human, plasma, iv, 3.3 mg/kg, IV infusion 3.3 mg/kg, human plasma, read-out: AUC∞ Median): 8260 ng·h/mL | Cmax (human, plasma, iv, 3.3 mg/kg, IV infusion 3.3 mg/kg, human plasma, read-out: Cmax Arithmetic Mean): 1600 ng/mL | Cmax (human, plasma, iv, 3.3 mg/kg, IV infusion 3.3 mg/kg, human plasma, read-out: Cmax GMean): 1590 ng/mL | Cmax (human, plasma, iv, 3.3 mg/kg, IV infusion 3.3 mg/kg, human plasma, read-out: Cmax Median): 1570 ng/mL | Tmax (human, plasma, iv, 3.3 mg/kg, IV infusion 3.3 mg/kg, human plasma, read-out: Tmax Arithmetic Mean): 1.22 h | Tmax (human, plasma, iv, 3.3 mg/kg, IV infusion 3.3 mg/kg, human plasma, read-out: Tmax GMean): 1.13 h | Tmax (human, plasma, iv, 3.3 mg/kg, IV infusion 3.3 mg/kg, human plasma, read-out: Tmax Median): 1.32 h | half-life (human, plasma, iv, 3.3 mg/kg, IV infusion 3.3 mg/kg, human plasma, read-out: t1/2 Arithmetic Mean (converted)): 19.6 h | half-life (human, plasma, iv, 3.3 mg/kg, IV infusion 3.3 mg/kg, human plasma, read-out: t1/2 GMean (converted)): 18.6 h | half-life (human, plasma, iv, 3.3 mg/kg, IV infusion 3.3 mg/kg, human plasma, read-out: t1/2 Median (converted)): 20.1 h | AUC(0-t) (human, plasma, iv, 3.3 mg/kg, IV infusion 3.3 mg/kg, read-out: AUClast LS Means): 7810 ng·h/mL | AUC(0-inf) (human, plasma, iv, 3.3 mg/kg, IV infusion 3.3 mg/kg, read-out: AUC∞ LS Means): 7900 ng·h/mL | Cmax (human, plasma, iv, 3.3 mg/kg, IV infusion 3.3 mg/kg, read-out: Cmax LS Means): 1590 ng/mL | Cmax (human, plasma, iv, 3.3 mg/kg, human, 3.3 mg/kg IV infusion, read-out: mean Cmax (arithmetic mean)): 1600 ng/mL | AUC(0-inf) (human, plasma, iv, 3.3 mg/kg, human, 3.3 mg/kg IV, read-out: mean AUC∞): 8070 ng·h/mL | Vd (human, plasma, iv, 3.3 mg/kg, human, IV infusion, read-out: volume of distribution): 11.2 L/kg and 822 L | half-life (human, plasma, other: IV or oral, 3.3 mg/kg, human, read-out: terminal elimination half-life, rapid clearance subset of subjects): 6 to 11 h | half-life (human, plasma, other: oral solution (fed and fasted) and IV infusion, 3.3 mg/kg, human, all 3 treatments, read-out: terminal elimination half-life, majority of subjects): 15 to 25 h | half-life (human, plasma, other: oral solution (fed and fasted) and IV infusion, 3.3 mg/kg, human, all three treatments, read-out: mean terminal elimination half-life): 16 to 21 h | Cmax (human, plasma, po, 3.3 mg/kg, human, 3.3 mg/kg oral solution, fasted state, read-out: mean Cmax (arithmetic mean)): 172 ng/mL | Cmax (human, plasma, po, 3.3 mg/kg, human, 3.3 mg/kg oral solution, fed state, read-out: mean Cmax (arithmetic mean)): 592 ng/mL | AUC(0-inf) (human, plasma, po, 3.3 mg/kg, human, 3.3 mg/kg oral, fasted state, read-out: mean AUC∞): 1810 ng·h/mL | AUC(0-inf) (human, plasma, po, 3.3 mg/kg, human, 3.3 mg/kg oral, fed state, read-out: mean AUC∞): 5000 ng·h/mL | bioavailability (human, plasma, po, 3.3 mg/kg, human, 3.3 mg/kg, fasted state (Cmax and AUC based), read-out: oral bioavailability): 5 to 21% | bioavailability (human, plasma, po, 3.3 mg/kg, human, 3.3 mg/kg, fed state (Cmax and AUC based), read-out: oral bioavailability): 19 to 63% | half-life (human, plasma, po, 3.3 mg/kg, human, subject 113, oral fed state, read-out: longest terminal half-life (converted)): 50.5 h | half-life (human, plasma, po, 3.3 mg/kg, human, subject 118, oral fasted state, read-out: shortest half-life (converted)): 6.92 h | bioavailability (human, plasma, po, 3.3 mg/kg, human, read-out: relative bioavailability following oral dosing in the fed state, one subject (105)): 91% | AUC (human, plasma, po, 3.3 mg/kg, oral 3.3 mg/kg fasted state, human plasma, read-out: AUC24 Arithmetic Mean): 1230 ng·h/mL | AUC (human, plasma, po, 3.3 mg/kg, oral 3.3 mg/kg fasted state, human plasma, read-out: AUC24 GMean): 1010 ng·h/mL | AUC (human, plasma, po, 3.3 mg/kg, oral 3.3 mg/kg fasted state, human plasma, read-out: AUC24 Median): 1070 ng·h/mL | AUC (human, plasma, po, 3.3 mg/kg, oral 3.3 mg/kg fasted state, human plasma, read-out: AUC48 Arithmetic Mean): 1620 ng·h/mL | AUC (human, plasma, po, 3.3 mg/kg, oral 3.3 mg/kg fasted state, human plasma, read-out: AUC48 GMean): 1340 ng·h/mL | AUC (human, plasma, po, 3.3 mg/kg, oral 3.3 mg/kg fasted state, human plasma, read-out: AUC48 Median): 1420 ng·h/mL | AUC (human, plasma, po, 3.3 mg/kg, oral 3.3 mg/kg fasted state, human plasma, read-out: AUC72 Arithmetic Mean): 1740 ng·h/mL | AUC (human, plasma, po, 3.3 mg/kg, oral 3.3 mg/kg fasted state, human plasma, read-out: AUC72 GMean): 1430 ng·h/mL | AUC (human, plasma, po, 3.3 mg/kg, oral 3.3 mg/kg fasted state, human plasma, read-out: AUC72 Median): 1530 ng·h/mL | AUC (human, plasma, po, 3.3 mg/kg, oral 3.3 mg/kg fasted state, human plasma, read-out: AUC96 Arithmetic Mean): 1780 ng·h/mL | AUC (human, plasma, po, 3.3 mg/kg, oral 3.3 mg/kg fasted state, human plasma, read-out: AUC96 GMean): 1460 ng·h/mL | AUC (human, plasma, po, 3.3 mg/kg, oral 3.3 mg/kg fasted state, human plasma, read-out: AUC96 Median): 1560 ng·h/mL | AUC(0-t) (human, plasma, po, 3.3 mg/kg, oral 3.3 mg/kg fasted state, human plasma, read-out: AUClast Arithmetic Mean): 1780 ng·h/mL | AUC(0-t) (human, plasma, po, 3.3 mg/kg, oral 3.3 mg/kg fasted state, human plasma, read-out: AUClast GMean): 1460 ng·h/mL | AUC(0-t) (human, plasma, po, 3.3 mg/kg, oral 3.3 mg/kg fasted state, human plasma, read-out: AUClast Median): 1560 ng·h/mL | AUC(0-inf) (human, plasma, po, 3.3 mg/kg, oral 3.3 mg/kg fasted state, human plasma, read-out: AUC∞ Arithmetic Mean): 1810 ng·h/mL | AUC(0-inf) (human, plasma, po, 3.3 mg/kg, oral 3.3 mg/kg fasted state, human plasma, read-out: AUC∞ GMean): 1480 ng·h/mL | AUC(0-inf) (human, plasma, po, 3.3 mg/kg, oral 3.3 mg/kg fasted state, human plasma, read-out: AUC∞ Median): 1590 ng·h/mL | CL/F (human, plasma, po, 3.3 mg/kg, oral 3.3 mg/kg fasted state, human plasma, read-out: CL Median (converted)): 34.5 mL/min/kg | Cmax (human, plasma, po, 3.3 mg/kg, oral 3.3 mg/kg fasted state, human plasma, read-out: Cmax Arithmetic Mean): 172 ng/mL | Cmax (human, plasma, po, 3.3 mg/kg, oral 3.3 mg/kg fasted state, human plasma, read-out: Cmax GMean): 133 ng/mL | Cmax (human, plasma, po, 3.3 mg/kg, oral 3.3 mg/kg fasted state, human plasma, read-out: Cmax Median): 169 ng/mL | Tmax (human, plasma, po, 3.3 mg/kg, oral 3.3 mg/kg fasted state, human plasma, read-out: Tmax Arithmetic Mean): 2.7 h | Tmax (human, plasma, po, 3.3 mg/kg, oral 3.3 mg/kg fasted state, human plasma, read-out: Tmax GMean): 2.42 h
